Measurements published in PubChem BioAssay (NCI).
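Cultured in 96-well plates, cells were exposed to test compound for 48 hours across five concentrations. GI50 is the concentration that inhibits growth by half. TGI: concentration producing complete growth inhibition.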

Legend:
Test in all cases: inhibition of tumour cell growth, NCI panel, 48 h
HS 578T breast = system: HS 578T breast
NCI-H522 lung = system: NCI-H522 lung
OVCAR-3 ovarian = system: OVCAR-3 ovarian
SK-MEL-5 melanoma = system: SK-MEL-5 melanoma
SNB-19 CNS = system: SNB-19 CNS
U251 CNS = system: U251 CNS
UACC-62 melanoma = system: UACC-62 melanoma
KM20L2 colon = system: KM20L2 colon
M19-MEL melanoma = system: M19-MEL melanoma
DLD-1 colon = system: DLD-1 colon

Structure (SMILES) | GI50 (HS 578T breast) [µM] | TGI (HS 578T breast) [µM] | GI50 (NCI-H522 lung) [µM] | TGI (NCI-H522 lung) [µM] | GI50 (OVCAR-3 ovarian) [µM] | TGI (OVCAR-3 ovarian) [µM] | GI50 (SK-MEL-5 melanoma) [µM] | TGI (SK-MEL-5 melanoma) [µM] | GI50 (SNB-19 CNS) [µM] | TGI (SNB-19 CNS) [µM] | GI50 (U251 CNS) [µM] | TGI (U251 CNS) [µM] | GI50 (UACC-62 melanoma) [µM] | TGI (UACC-62 melanoma) [µM] | TGI (KM20L2 colon) [µM] | TGI (M19-MEL melanoma) [µM] | GI50 (DLD-1 colon) [µM] | TGI (DLD-1 colon) [µM] | GI50 (KM20L2 colon) [µM] | GI50 (M19-MEL melanoma) [µM]
CNCCn1c(=O)c2cc(OC)c(OC)cc2c2ccc3cc4c(cc3c21)OCO4 | 0.835 | 8.39 | 0.0548 | 0.554 | 0.162 | 1.25 | 0.0862 | 0.199 | 0.116 | 5.61 | 0.0495 | 1.19 | 0.0465 | 0.145 |  |  |  |  |  | 
CC(=O)OCC(OC(C)=O)C(OC(C)=O)C(OC(C)=O)C(=O)CNn1c(-c2ccccc2Cl)nc2ccccc2c1=O (stereo not given) |  |  |  | > 100 |  | > 100 |  | > 100 |  | > 100 |  | > 100 |  | > 100 | > 100 | > 100 |  |  |  | 
OCCNc1ncnc2c1ncn2Cc1cccc(COc2cccc(OCc3cccc(Cn4cnc5c(NCCO)ncnc54)c3)c2)c1 | 11.8 | 28.7 | 12.5 | 31.8 | 17.6 | 36.7 | 16.7 | 31 | 15.4 | 30.4 | 12.3 | 24.7 | 17 | 33.8 |  |  |  |  |  | 
CN1C(=O)N(C)C2C1NN=c1s/c(=C\c3ccc(F)cc3)c(=O)n12 (stereo not given) | 2.08 | 7.31 | 2.22 | > 100 | 1.24 | 8.09 | 0.995 | 12 | 5.57 | > 100 | 3.06 | > 100 | 3.61 | > 100 |  |  |  |  |  | 
CCN(CC)C(=S)SC |  | > 100 |  | > 100 |  | > 100 |  | > 100 |  | > 100 |  | > 100 |  | > 100 |  |  |  |  |  | 
COc1ccc2cc(-c3c(-c4ccncc4)nc(-c4ccc(S(C)(=O)=O)cc4C)n3C)ccc2c1 | 5.24 | > 25 | 4.45 | 19 | 6.97 | > 23.5 | 4.54 | > 15.4 | 9.04 | > 25 | 11.2 | > 25 | 7.95 | > 25 |  |  |  |  |  | 
COc1ccc(Cn2cc3c(c2)-c2oncc2CC3)cc1 | 3 | 13.8 | 3.24 | 16.7 | 2.61 | 6.51 | 3.21 | 12.6 | 9.05 | > 100 | 4.43 | > 92 | 3.75 | > 100 |  |  |  |  |  | 
CC[O-].CC[O-].O=S(=O)([O-])c1ccc([O-])c2ncccc12.O=S(=O)([O-])c1ccc([O-])c2ncccc12.[Ti+4] |  |  | 32.8 | > 100 | 47.6 | > 100 | > 100 | > 100 | 58.3 | > 100 |  |  | 66.2 | > 100 | > 100 | > 100 | 91.1 | > 100 | 39.7 | > 100
NC(=O)c1cc2c3ccccc3ccn2c1-c1ccccc1 | 0.0632 | 62.6 | 0.0666 | 20.8 | 0.0272 | 0.072 | 0.0392 | 3.14 | 0.0727 | 22.1 | 0.0475 | 14.2 | 0.0385 | > 41.7 |  |  |  |  |  | 
CC[PH+](CC)CC.O=COC1OC([S-])C(OC=O)C(OC=O)C1OC=O.[Au+] (stereo not given) | 0.775 | 4.76 | 1.17 | 3.97 | 1.43 | 2.99 | 1.27 | 2.63 | 1.34 | 2.61 | 0.368 | 1.47 | 1.06 | 2.31 |  |  |  |  |  | 
CC1C(=O)OCC2=CCN3CCC(OC(=O)C(C)C1(C)O)C23 (stereo not given) |  | > 100 |  | > 100 |  | > 100 |  | > 100 |  | > 100 |  | > 100 |  | > 100 |  |  |  |  |  | 
C/C(=N\N(c1ccccc1)c1ccccc1)c1c(O)cc(C)oc1=O |  |  |  | > 100 |  |  |  |  |  | > 100 |  | > 100 |  | > 100 | > 100 | > 100 |  | > 100 |  | 
Cc1cc2c(cc1C)N(C(=O)CCl)CCN2C(=O)CCl | 1.75 | 4.96 | 0.178 | 0.348 | 1.11 | 2.46 | 0.64 | 1.93 | 1.81 | 4.1 | 1.39 | 2.88 | 0.657 | 2.29 |  |  |  |  |  | 
COc1ccc2c(c1)/C(=C\c1c(Cl)[nH]c3ccc(OC)cc13)C(=O)N2 | 29.9 | 81.2 | 26.8 | 74.4 | 29.4 | > 100 |  | 25.3 | 20.6 | 64.1 | 19.7 | 43.8 | 35.2 | > 100 |  |  |  |  |  | 
COC(=O)c1ccccc1NC(=O)C(=O)NNC(=O)c1ccncc1 |  |  |  | > 100 |  | > 100 |  | > 100 |  | > 100 |  |  |  | > 100 | > 100 | > 100 |  | > 100 |  | 
O=c1cccc(C2CC(CO)C3CCCCN3C2)[nH]1 (stereo not given) |  | > 100 |  | > 100 |  | > 100 |  | > 100 |  | > 100 |  | > 100 |  | > 100 |  |  |  |  |  | 
CCOc1cccc(/C=N/NC(=O)C(=O)Nc2cccc(C(F)(F)F)c2)c1O | 12 | > 100 | 2.29 | > 100 | 0.407 | > 100 | 1.87 | 19 | 2.48 | > 100 | 1.46 | > 100 | 1.06 | 4.51 |  |  |  |  |  | 
CCn1c(-c2nonc2N)nc2c(C#CC(C)(C)O)nc(OCCNC)cc21 | 6.03 | > 25 | 4.98 | 9.72 | 6.16 | 17.7 | 5.19 | 12 | 8.4 | > 25 | 6.5 | > 25 | 6.08 | 16.9 |  |  |  |  |  | 
CC(CCC(=O)O)C(=O)O (stereo not given) |  | > 100 |  | > 100 |  | > 100 |  | > 100 |  | > 100 |  | > 100 |  | > 100 |  |  |  |  |  | 
